Results published in patent US20110245218A1 (priority 2010, published 2011).

Row | melting point [°C] | Compound
1 | 150 to 152 | CN1C(=O)C(S)=C(SC(=N)N)C1=O [Compound 27, 4-{[amino(iminio)methyl]sulphanyl}-1-methyl-2,5-dioxo-2,5-dihydro-1H-pyrrole-3-thiolate]
2 | 145 to 148 | CN1C(=O)C(S)=C(S)C1=O
3 | 163 to 164 | CN1C(=O)C(SC(=N)N)=C(SC(=N)N)C1=O [Compound 1, [(1-methyl-2,5-dioxo-2,5-dihydro-1H-pyrrole-3,4-diyl)disulphanediyl]bis(aminomethaniminium) dichloride]
